{"source": "patent US6444613B1", "about": "“Defoliant” (Hoechst Schering AgrEvo GmbH, priority 1999, dated 2002)", "tested_on": "cotton plants", "assay": "Action as defoliant: leaf abscission of cotton plants after spray application", "type": "in vivo"}
{"compound": "O=C(Nc1ccccc1)Nc1cnns1", "note": "[Thidiazuron, thidiazuron]", "values": [{"measurement": "Effect in % (leaf abscission)", "setting": "Table 1 fluthiacet-methyl trial, dose 25 g/ha, 4 days, cotton 8-10 leaf stage", "value": 5, "unit": "%"}, {"measurement": "Effect in % (leaf abscission)", "setting": "Table 1 fluthiacet-methyl trial, dose 25 g/ha, 5 days, cotton 8-10 leaf stage", "value": 24, "unit": "%"}, {"measurement": "Effect in % (leaf abscission)", "setting": "Table 2 pyraflufen-ethyl trial, dose 25 g/ha, 3 days", "value": 4, "unit": "%"}, {"measurement": "Effect in % (leaf abscission)", "setting": "Table 2 pyraflufen-ethyl trial, dose 25 g/ha, 5 days", "value": 17, "unit": "%"}, {"measurement": "Effect in % (leaf abscission)", "setting": "Table 3.1 carfentrazone-ethyl trial, dose 80 g/ha, 10 days", "value": 0, "unit": "%"}, {"measurement": "Effect in % (leaf abscission)", "setting": "Table 3.1 carfentrazone-ethyl trial, dose 80 g/ha, 20 days", "value": 8, "unit": "%"}, {"measurement": "Effect in % (leaf abscission)", "setting": "Table 3.2 carfentrazone-ethyl trial, dose 25 g/ha, 6 days", "value": 29, "unit": "%"}, {"measurement": "Effect in % (leaf abscission)", "setting": "Table 3.2 carfentrazone-ethyl trial, dose 25 g/ha, 9 days", "value": 52, "unit": "%"}]}
{"compound": "CCOC(=O)C(Cl)Cc1cc(-n2nc(C)n(C(F)F)c2=O)c(F)cc1Cl", "note": "(centres unmarked) [Carfentrazone-ethyl, carfentrazone-ethyl]", "values": [{"measurement": "Effect in % (leaf abscission)", "setting": "Table 3.1 carfentrazone-ethyl trial, dose 25 g/ha, 10 days", "value": 0, "unit": "%"}, {"measurement": "Effect in % (leaf abscission)", "setting": "Table 3.1 carfentrazone-ethyl trial, dose 25 g/ha, 20 days", "value": 5, "unit": "%"}, {"measurement": "Effect in % (leaf abscission)", "setting": "Table 3.2 carfentrazone-ethyl trial, dose 1.5 g/ha, 6 days", "value": 29, "unit": "%"}, {"measurement": "Effect in % (leaf abscission)", "setting": "Table 3.2 carfentrazone-ethyl trial, dose 1.5 g/ha, 9 days", "value": 29, "unit": "%"}]}
{"compound": "pyraflufen-ethyl", "values": [{"measurement": "Effect in % (leaf abscission)", "setting": "Table 2 pyraflufen-ethyl trial, dose 1 g/ha, 3 days", "value": 0, "unit": "%"}, {"measurement": "Effect in % (leaf abscission)", "setting": "Table 2 pyraflufen-ethyl trial, dose 1 g/ha, 5 days", "value": 0, "unit": "%"}, {"measurement": "Effect in % (leaf abscission)", "setting": "Table 2 pyraflufen-ethyl trial, dose 2 g/ha, 3 days", "value": 0, "unit": "%"}, {"measurement": "Effect in % (leaf abscission)", "setting": "Table 2 pyraflufen-ethyl trial, dose 2 g/ha, 5 days", "value": 0, "unit": "%"}]}
{"compound": "COC(=O)CSc1cc(/N=c2\\sc(=O)n3n2CCCC3)c(F)cc1Cl", "note": "[Fluthiacet-methyl, fluthiacet-methyl]", "values": [{"measurement": "Effect in % (leaf abscission)", "setting": "Table 1 fluthiacet-methyl trial, dose 0.,5 g/ha, 4 days", "value": 5, "unit": "%"}, {"measurement": "Effect in % (leaf abscission)", "setting": "Table 1 fluthiacet-methyl trial, dose 0.,5 g/ha, 5 days", "value": 14, "unit": "%"}, {"measurement": "Effect in % (leaf abscission)", "setting": "Table 1 fluthiacet-methyl trial, dose 0.25 g/ha, 4 days", "value": 0, "unit": "%"}, {"measurement": "Effect in % (leaf abscission)", "setting": "Table 1 fluthiacet-methyl trial, dose 0.25 g/ha, 5 days", "value": 0, "unit": "%"}]}
